Experiment [1] deals with ovarian cancer cells A2780. The experiment in a line: Cell anti-proliferation experiment, MTT (Table 2). The conditions noted are these: Homo sapiens, A2780, 72 h, incubate 3 days. The format is cell-based, human. The text has this: (§1) Human breast cancer cells MDA-MB 231, MDA-MB453, ovarian cancer cells OVCAR3 and A2780, colorectal cancer cells HCT-116 and WiDr, and lung cancer cell Calu-6 were purchased from BNCC. DMEM medium (Bio-Channel), DMSO (dimethyl sulfoxide), MTT (thiazole blue), 0.25% EDTA-Tripsin (pancreatin digestive juice), 1×PBS (phosphate buffer, PH7.2), 96-well plate (Corning), fetal bovine serum (FBS), 10,000 U/mL penicillin-G/streptomycin, high-speed freezing centrifuge (EPPENDORF 5810R), enzyme-linked immunosorbent assay (Tecan Spark).
(§2) 1. Cell Plating • A) Tumor cells were cultured to 80-90% density in DMEM (high sugar, containing 10% FBS and 100 U/mL penicillin-G/streptomycin) at 37° C., 5% CO2 and saturated humidity. • B) The culture medium was removed from the 10 cm culture dish. • C) Cells were washed with 10 ml 1×PBS. • D) 4 ml of 0.25% EDTA-Tripsin was added to an incubator to digest pancreatin for 5 minutes at 37° C. and 5% CO2, transferred to a 15 ml centrifuge tube, centrifuged for 5 minutes at 200 g, and supernatant was discarded to obtain cell precipitation. • E) The cell precipitation was resuspended with 4 ml DMEM medium, counted and adjusted to 50,000 cells/ml. • F) Cell suspension was added to a 96-well plate with a volume of 100 μL per well and cultured overnight in a 5% CO2 incubator at 37° C.
(§3) Compound Dilution • A) Preparing the tested compound gradient dilution solution: the tested compounds were prepared into 10 mM and 1 mM storage solution respectively. Firstly, 1 μl and 0.5 μl of 10 mM storage solution were dissolved in 1 ml of DMSO-free culture solution, respectively, to obtain diluted compounds with concentrations of 10 and 5 μM. Then, 1.5 μl of 1 mM storage solution was dissolved in 1.5 ml of DMSO-free culture solution to obtain a dilution compound with a concentration of 1 μM, and then diluted with a 3-fold continuous gradient with […] culture solution for a total of 7 concentrations. The concentrations of all 10 diluted compounds mentioned above were as follows: • 10 μM, 5 μM, 1 μM, 333.33 nM, 111.11 nM, 37.03 nM, 12.35 nM, 4.15 nM, 1.37 nM, 0.46 nM • B) After full mixing, 100 μL of culture compound solution was taken to replace the culture solution in the cell culture plate, with 4 duplicated wells at each concentration; • C) The cells were transferred to incubator to incubate for 3 days.
(§4) 3. MTT Detection • A) The cell culture plate was taken out and added with 5 mg/ml MTT 10 μL in the biosafety cabinet; • B) The cell culture plate was put back into the incubator and continued to incubate for 3 hours; • C) The cell culture plate was taken out to remove the culture solution, 100 μL isopropanol (containing 0.4 mM HCl, 0.1% NP-40) was added, shaking at room temperature for 30 minutes; • D) The absorbance value was measured at 570 nm on TECAN enzyme linked immunosorbent assay.

The target of another experiment is CDK2/Cyclin El (Homo sapiens (Human), UniProt P24941). The experiment in a line: Enzyme activity test, mobility shift assay (Table 1). The format is biochemical. Conditions: 2 mM ATP; read-out: CDK2 kinase IC50. As for the experimental part: (§5) The compound powder was dissolved in 100% DMSO to prepare a 10 mM storage solution. The storage solution was further diluted to 0.5 mM as the initial concentration, and continuously diluted 3 times to obtain 10 compound solutions with different concentrations. The compound and enzyme were pre-incubated for 0 minutes and 60 minutes, respectively, using duplicate detection.
(§6) was used as a positive control, and Mobility shift assay method was used to detect CDK kinase (such as CDK7, CDK9, CDK12 and CDK2) activity of the compounds.

The next experiment has as its target CDK9/Cyclin Tl (Homo sapiens (Human), UniProt P50750). Described as above. The format is biochemical. Conditions: 2 mM ATP; read-out: CDK9 kinase IC50. How it is done:
as §5, §6

In experiment [2] the target is CDK12 (aa686-1082)/Cyclin K (Homo sapiens (Human), UniProt Q9NYV4). Described as above. The format is biochemical. Conditions: 2 mM ATP; read-out: CDK12 kinase IC50. As for the experimental part: The compound powder was dissolved in 100% DMSO to prepare a 10 mM storage solution. The storage solution was further diluted to 0.5 mM as the initial concentration, and continuously diluted 3 times to obtain 10 compound solutions with different concentrations. The compound and enzyme were pre-incubated for 0 minutes and 60 minutes, respectively, using duplicate detection. Compound Staurosporine having a structural formula of
Sequence of CDK12 (aa686-1082)/Cyclin K (Q9NYV4 686-1082): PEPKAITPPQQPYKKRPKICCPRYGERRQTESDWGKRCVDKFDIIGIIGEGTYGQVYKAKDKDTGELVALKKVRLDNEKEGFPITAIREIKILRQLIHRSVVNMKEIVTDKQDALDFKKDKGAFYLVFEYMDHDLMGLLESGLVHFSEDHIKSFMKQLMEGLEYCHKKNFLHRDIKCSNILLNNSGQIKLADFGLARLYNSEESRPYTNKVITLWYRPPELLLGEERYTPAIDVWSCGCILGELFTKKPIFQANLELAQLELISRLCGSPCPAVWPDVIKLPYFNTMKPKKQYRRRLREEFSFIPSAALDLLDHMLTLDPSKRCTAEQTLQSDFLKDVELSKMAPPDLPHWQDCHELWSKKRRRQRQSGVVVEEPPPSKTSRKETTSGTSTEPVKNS
Sequence of CDK12 (aa686-1082)/Cyclin K (O75909 whole entry partner, the tested form may be a part): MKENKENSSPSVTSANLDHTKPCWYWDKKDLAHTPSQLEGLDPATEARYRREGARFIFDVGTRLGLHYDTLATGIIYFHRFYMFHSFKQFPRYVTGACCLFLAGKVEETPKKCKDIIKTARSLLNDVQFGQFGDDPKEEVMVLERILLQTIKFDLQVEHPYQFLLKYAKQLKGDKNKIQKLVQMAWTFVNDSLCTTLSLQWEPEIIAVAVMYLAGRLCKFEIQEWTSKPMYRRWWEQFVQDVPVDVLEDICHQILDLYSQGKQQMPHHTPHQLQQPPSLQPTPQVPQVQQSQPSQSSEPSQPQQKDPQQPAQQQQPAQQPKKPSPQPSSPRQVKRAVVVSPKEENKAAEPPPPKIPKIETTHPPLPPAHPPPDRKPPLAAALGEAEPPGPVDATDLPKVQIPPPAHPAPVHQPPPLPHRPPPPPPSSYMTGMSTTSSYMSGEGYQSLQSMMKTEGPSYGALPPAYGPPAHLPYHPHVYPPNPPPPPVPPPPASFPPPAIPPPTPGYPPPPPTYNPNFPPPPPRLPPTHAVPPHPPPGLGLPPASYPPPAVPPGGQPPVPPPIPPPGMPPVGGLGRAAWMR
as §6

In experiment [3] the target is CDK7/Cyclin H/MAT1 kinase (Homo sapiens (Human), UniProt P50613). The experiment is described as above. Conditions: 2 mM ATP; pre-incubated 0 and 60 minutes. The format is biochemical.
Sequence of CDK7/Cyclin H/MAT1 kinase (P50613 whole entry): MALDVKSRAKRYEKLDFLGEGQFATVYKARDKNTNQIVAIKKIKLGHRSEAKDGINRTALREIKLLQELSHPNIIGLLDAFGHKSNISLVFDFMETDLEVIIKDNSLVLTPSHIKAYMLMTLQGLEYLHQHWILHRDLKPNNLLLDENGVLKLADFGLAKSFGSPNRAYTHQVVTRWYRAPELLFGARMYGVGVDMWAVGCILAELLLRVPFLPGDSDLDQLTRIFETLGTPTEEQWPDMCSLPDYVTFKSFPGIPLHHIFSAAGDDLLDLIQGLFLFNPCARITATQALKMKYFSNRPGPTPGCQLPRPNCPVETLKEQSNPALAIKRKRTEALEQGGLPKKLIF
Sequence of CDK7/Cyclin H/MAT1 kinase (P51946 whole entry partner): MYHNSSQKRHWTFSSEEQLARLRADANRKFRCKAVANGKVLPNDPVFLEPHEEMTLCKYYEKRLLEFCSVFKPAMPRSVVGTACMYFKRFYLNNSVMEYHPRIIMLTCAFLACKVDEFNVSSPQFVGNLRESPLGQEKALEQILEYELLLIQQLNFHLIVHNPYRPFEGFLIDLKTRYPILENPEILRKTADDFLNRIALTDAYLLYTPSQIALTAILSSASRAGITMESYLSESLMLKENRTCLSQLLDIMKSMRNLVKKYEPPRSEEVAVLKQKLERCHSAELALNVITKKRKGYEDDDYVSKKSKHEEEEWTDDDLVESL
Sequence of CDK7/Cyclin H/MAT1 kinase (P51948 whole entry partner): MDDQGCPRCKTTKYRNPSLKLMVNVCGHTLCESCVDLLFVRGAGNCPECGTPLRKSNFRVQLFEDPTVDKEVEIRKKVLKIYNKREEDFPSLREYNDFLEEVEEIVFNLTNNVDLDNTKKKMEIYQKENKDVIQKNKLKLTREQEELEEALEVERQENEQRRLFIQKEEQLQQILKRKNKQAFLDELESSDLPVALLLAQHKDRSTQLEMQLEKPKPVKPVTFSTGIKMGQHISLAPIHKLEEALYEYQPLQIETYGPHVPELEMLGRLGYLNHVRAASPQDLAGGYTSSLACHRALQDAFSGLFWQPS
Experiment [4] has as its system ovarian cancer cells OVCAR3. Description: Cell anti-proliferation experiment, MTT (Table 2). The conditions noted are these: Homo sapiens, OVCAR-3, 72 h, incubate 3 days. It is filed as cell-based.
Text: as §1, §2, §3, §4

Sequence of CDK9/Cyclin Tl (P50750 whole entry): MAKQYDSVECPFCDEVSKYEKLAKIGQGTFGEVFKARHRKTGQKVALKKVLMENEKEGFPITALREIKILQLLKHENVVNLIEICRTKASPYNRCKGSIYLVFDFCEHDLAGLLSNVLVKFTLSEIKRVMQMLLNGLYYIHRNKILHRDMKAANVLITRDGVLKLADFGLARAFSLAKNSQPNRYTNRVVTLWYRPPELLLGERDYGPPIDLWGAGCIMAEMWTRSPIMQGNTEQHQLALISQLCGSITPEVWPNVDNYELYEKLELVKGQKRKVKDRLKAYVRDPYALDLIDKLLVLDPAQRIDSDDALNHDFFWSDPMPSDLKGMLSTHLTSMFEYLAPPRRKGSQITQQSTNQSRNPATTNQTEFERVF
Sequence of CDK9/Cyclin Tl (O60563 whole entry partner): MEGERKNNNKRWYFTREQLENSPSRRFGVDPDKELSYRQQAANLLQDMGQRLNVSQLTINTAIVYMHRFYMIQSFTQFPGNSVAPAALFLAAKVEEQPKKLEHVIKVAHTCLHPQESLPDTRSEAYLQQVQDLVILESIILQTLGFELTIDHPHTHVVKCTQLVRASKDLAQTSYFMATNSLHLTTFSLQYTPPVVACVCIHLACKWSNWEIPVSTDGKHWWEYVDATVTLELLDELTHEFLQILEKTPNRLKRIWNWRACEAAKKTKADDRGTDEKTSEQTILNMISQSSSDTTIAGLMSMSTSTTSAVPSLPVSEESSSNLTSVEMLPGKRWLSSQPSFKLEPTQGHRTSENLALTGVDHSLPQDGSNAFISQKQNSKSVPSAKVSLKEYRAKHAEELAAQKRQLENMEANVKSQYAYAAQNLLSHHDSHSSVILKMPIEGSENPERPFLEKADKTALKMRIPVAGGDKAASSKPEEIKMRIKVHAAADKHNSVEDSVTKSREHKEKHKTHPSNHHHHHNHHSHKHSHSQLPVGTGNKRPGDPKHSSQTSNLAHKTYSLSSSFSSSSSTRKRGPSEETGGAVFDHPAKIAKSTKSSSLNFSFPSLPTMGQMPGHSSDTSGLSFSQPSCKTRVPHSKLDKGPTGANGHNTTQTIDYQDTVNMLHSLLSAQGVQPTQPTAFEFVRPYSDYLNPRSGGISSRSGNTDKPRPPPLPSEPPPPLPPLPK

As to `COC(=O)Nc1ccc2c(-c3nc(N[C@H]4CCC5(CC5)NC4)ncc3C(F)(F)F)c[nH]c2c1Cl` [Example T-81], the IC50 in experiment [1] was 1.26 nM; at CDK2/Cyclin El it was greater than 0.5 µM; at CDK9/Cyclin Tl, greater than 0.5 µM; in experiment [2] it was greater than 0.5 µM; in experiment [3], less than 0.05 µM; in experiment [4], 55.5 nM.

For the molecule `COC(=O)Nc1ccc2c(-c3nc(N[C@H]4CCC(C)(C)NC4)ncc3C(F)(F)F)c[nH]c2c1OCC(F)(F)F` [Example T-91], the IC50 in experiment [1] is 8.75 nM; in experiment [3], less than 0.05 µM; in experiment [4] it was 80.2 nM.

Regarding `COC(=O)Nc1ccc2c(-c3nc(N[C@H]4CCCNC4)ncc3C(F)(F)F)c[nH]c2c1C(C)=O` [Example T-98], the IC50 in experiment [1] worked out at 5.55 nM; in experiment [4], 127 nM.

Consider `COC(=O)Nc1ccc2c(-c3nc(N[C@H]4CCCNC4)ncc3C(F)(F)F)c[nH]c2c1C(C)(F)F` [Example T-99], for which the figures for the IC50 in experiment [1], in experiment [3] and in experiment [4] were 1.54 nM, less than 0.05 µM and 53.4 nM, respectively.

Turning to `COC(=O)Nc1ccc2c(-c3nc(N[C@H]4CCCNC4)ncc3C(F)(F)F)c[nH]c2c1OC(F)(F)F` [Example T-122], the IC50 in experiment [1] was 0.54 nM; in experiment [3], less than 0.05 µM.

For the molecule `COC(=O)Nc1ccc2c(-c3nc(N[C@H]4CCC5(CC5)NC4)ncc3C(F)(F)F)c[nH]c2c1C1CC1` [Example T-128], the concentration for half-maximal inhibition (IC50) is 8.68 nM in experiment [1]; greater than 0.5 µM on CDK2/Cyclin El; greater than 0.5 µM at CDK9/Cyclin Tl; greater than 0.5 µM in experiment [2]; less than 0.05 µM in experiment [3]; 9.08 nM in experiment [4].

As to `COC(=O)Nc1ccc2c(-c3nc(N[C@H]4CCC(C)(C)NC4)ncc3C(F)(F)F)c[nH]c2c1OC` [Example T-132], the IC50 in experiment [1] was 4.52 nM; on CDK2/Cyclin El it was greater than 0.5 µM; on CDK9/Cyclin Tl, greater than 0.5 µM; in experiment [2], greater than 0.5 µM; in experiment [3] it was less than 0.05 µM; in experiment [4], 100 nM.

Regarding `COC(=O)Nc1ccc2c(-c3nc(N[C@H]4CCC5(CC5)NC4)ncc3C(F)(F)F)c[nH]c2c1C(C)=O` [Example T-135], the IC50 in experiment [1] is 4.61 nM; on CDK2/Cyclin El, greater than 0.5 µM; at CDK9/Cyclin Tl, greater than 0.5 µM; in experiment [2], greater than 0.5 µM; in experiment [3], less than 0.05 µM; in experiment [4], 161 nM.

Regarding `COC(=O)Nc1ccc2c(-c3nc(N[C@H]4CCC5(CC5)NC4)ncc3C(F)(F)F)c[nH]c2c1Br` [Example T-142], the half-maximal inhibitory concentration (IC50) in experiment [1] was 5.05 nM; on CDK2/Cyclin El, greater than 0.5 µM; on CDK9/Cyclin Tl, greater than 0.5 µM; in experiment [2], greater than 0.5 µM; in experiment [3], less than 0.05 µM; in experiment [4] it was 120 nM.

Regarding `COC(=O)Nc1ccc2c(-c3nc(N[C@H]4CC[C@@H](C)NC4)ncc3C(F)(F)F)c[nH]c2c1C(F)(F)F` [Example T-149], the IC50 on CDK2/Cyclin El is greater than 0.5 µM; at CDK9/Cyclin Tl, greater than 0.5 µM; in experiment [2], greater than 0.5 µM; in experiment [3] it was 0.05 to 0.5 µM.

As for `COC(=O)Nc1ccc2c(-c3nc(N[C@H]4CCC5(CC5)NC4)ncc3C(F)(F)F)c[nH]c2c1OCC(F)(F)F` [Example T-150], the IC50 in experiment [1] is 13.5 nM; on CDK2/Cyclin El it was greater than 0.5 µM; at CDK9/Cyclin Tl it was greater than 0.5 µM; in experiment [2] it was greater than 0.5 µM; in experiment [3], less than 0.05 µM; in experiment [4], 161 nM.

As for `COC(=O)Nc1ccc2c(-c3nc(N[C@H]4CC[C@@H](C)NC4)ncc3C(F)(F)F)c[nH]c2c1OCC(F)(F)F` [Example T-151], the IC50 on CDK2/Cyclin El was greater than 0.5 µM; at CDK9/Cyclin Tl, greater than 0.5 µM; in experiment [2], greater than 0.5 µM; in experiment [3] it was 0.05 to 0.5 µM.

For the molecule `CCOC(=O)Nc1ccc2c(-c3nc(N[C@H]4CCC(C)(C)NC4)ncc3C(F)(F)F)c[nH]c2c1C(C)(F)F` [Example T-153], the half-maximal inhibitory concentration (IC50) on CDK2/Cyclin El is greater than 0.5 µM; at CDK9/Cyclin Tl, greater than 0.5 µM; in experiment [2], greater than 0.5 µM; in experiment [3] it was less than 0.05 µM.

For `COC(=O)Nc1ccc2c(-c3nc(N[C@H]4CCC5(CC5)NC4)ncc3C(F)(F)F)c[nH]c2c1OC(F)F` [Example T-154], the concentration for half-maximal inhibition (IC50) was greater than 0.5 µM at CDK2/Cyclin El, greater than 0.5 µM at CDK9/Cyclin Tl, greater than 0.5 µM in experiment [2] and less than 0.05 µM in experiment [3].

`COC(=O)Nc1ccc2c(-c3nc(N[C@H]4CCCNC4)ncc3C(F)(F)F)c[nH]c2c1C(F)F` [Example T-155]: the IC50 is greater than 0.5 µM at CDK2/Cyclin El, greater than 0.5 µM at CDK9/Cyclin Tl, greater than 0.5 µM in experiment [2] and less than 0.05 µM in experiment [3].

On to `COC(=O)Nc1ccc2c(-c3nc(N[C@H]4CCC5(CC5)NC4)ncc3C(F)(F)F)c[nH]c2c1C(F)F` [Example T-156], for which the IC50 in experiment [1] was 1.23 nM; on CDK2/Cyclin El, greater than 0.5 µM; at CDK9/Cyclin Tl it was greater than 0.5 µM; in experiment [2], greater than 0.5 µM; in experiment [3], less than 0.05 µM.

Turning to `CCOc1c(NC(=O)OC)ccc2c(-c3nc(N[C@H]4CCCN(C)C4)ncc3C(F)(F)F)c[nH]c12` [Example T-161], the IC50 at CDK2/Cyclin El is greater than 0.5 µM; on CDK9/Cyclin Tl, greater than 0.5 µM; in experiment [2], greater than 0.5 µM; in experiment [3] it was less than 0.05 µM.

Consider `COC(=O)N(C)c1ccc2c(-c3nc(N[C@H]4CCCNC4)ncc3C(F)(F)F)c[nH]c2c1Cl` [Example T-162], for which the IC50 on CDK2/Cyclin El was greater than 0.5 µM; on CDK9/Cyclin Tl, greater than 0.5 µM; in experiment [2], greater than 0.5 µM; in experiment [3], less than 0.05 µM.

Take `COC(=O)N(C)c1ccc2c(-c3nc(N[C@H]4CCCNC4)ncc3C(F)(F)F)c[nH]c2c1C(F)F` [Example T-163]: the IC50 on CDK2/Cyclin El is greater than 0.5 µM; on CDK9/Cyclin Tl, greater than 0.5 µM; in experiment [2], greater than 0.5 µM; in experiment [3], less than 0.05 µM.

Regarding `COC(=O)N(C)c1ccc2c(-c3nc(N[C@H]4CCCNC4)ncc3C(F)(F)F)c[nH]c2c1C(F)(F)F` [Example T-164], the IC50 on CDK2/Cyclin El is greater than 0.5 µM; at CDK9/Cyclin Tl it was greater than 0.5 µM; in experiment [2], greater than 0.5 µM; in experiment [3], less than 0.05 µM.

Take `COC(=O)N(C)c1ccc2c(-c3nc(N[C@H]4CCCNC4)ncc3C(F)(F)F)c[nH]c2c1OC(F)F` [Example T-165]: the IC50 on CDK2/Cyclin El is greater than 0.5 µM; on CDK9/Cyclin Tl, greater than 0.5 µM; in experiment [2] it was greater than 0.5 µM; in experiment [3] it was less than 0.05 µM.

As to `COC(=O)Nc1ccc2c(-c3nc(N[C@H]4CCCN(C)C4)ncc3C(F)(F)F)c[nH]c2c1Cl` [Example T-168], the IC50 is greater than 0.5 µM at CDK2/Cyclin El, greater than 0.5 µM on CDK9/Cyclin Tl, greater than 0.5 µM in experiment [2] and less than 0.05 µM in experiment [3].

On to `COC(=O)Nc1ccc2c(-c3nc(N[C@H]4CCCN(C)C4)ncc3C(F)(F)F)c[nH]c2c1C(F)F` [Example T-169], for which the IC50 at CDK2/Cyclin El is greater than 0.5 µM; at CDK9/Cyclin Tl it was greater than 0.5 µM; in experiment [2], greater than 0.5 µM; in experiment [3] it was less than 0.05 µM.

A word on the IC50: it is the concentration needed to halve the response being measured.

The values are drawn from patent US20230295130A1, “COMPOUND USEFUL AS CDK7 KINASE INHIBITOR AND USE THEREOF” (TYK MEDICINES, INC., priority 2020, published 2023).
